The test system of one data set is Rats. The data set can be described thus: Oral LD50. The format is in vivo. The text has this:
The test procedure employed is described in the “Appraisal of the Safety of Chemicals in Foods, Drugs and Cosmetics” published by the Food & Drug Officials of the United States.

In another data set the test system is Skin. Nature of the data set: Dermal irritation study (primary irritation of the skin). The format is in vivo. Particulars: 0.5 ml/patch, 4 patches on each of 6 rabbits. As to the method: The test procedure employed is described as Local Toxicity, Primary Irritation of the Skin in “Appraisal of the Safety of Chemicals in Foods, Drugs and Cosmetics” published by the Food & Drug Officials of the United States.
The dose to test the response was 0.5 ml/patch with 4 patches on each of 6 rabbits. The results indicated a primary skin irritation index of 2.375.

The next data set concerns rabbit eyes. Nature of the data set: Eye irritation study. The format is in vivo, albino rabbits. Particulars: 0.1 ml instilled into one eye, nine rabbits. The protocol: The test procedure employed is described in the Appraisal of the Safety of Chemicals in Foods, Drugs and Cosmetics, published by the Association of Food and Drug Officials of the United States. Nine normal healthy albino rabbits were used for this study.
Each of the nine animals had 0.1 ml of the test material (benzyl linoleate) instilled into one eye of each test animal. The other eye was untreated and observed as a control. Two seconds after instillation of the test material, a washout was conducted in 3 of the rabbits using 20 ml. of warm water. Four seconds after test material instillation, washout was conducted in 3 additional rabbits using 20 ml. of warm water. All animals were examined frequently during the seven following days.

Data on one molecule can be found in patent US6365629B1, “Fatty acid esters of aromatic alcohols and their use in cosmetic formulations” (Alto, Inc., priority 1999, dated 2002).

As to `CCCCC/C=C\C/C=C\CCCCCCCC(=O)OCc1ccccc1` [Benzyl Linoleate], in the data set with Rats (rat, in vivo, po), the “Oral LD50” value came out at 7.0 mL/kg. Besides, the “gross autopsy findings on dead animals” value with Rats (rats, oral LD50 study) was “hemorrhagic lungs, dark livers and spleens, slight hemorrhagic stomachs and intestines and pale kidneys”. In the data set on Skin, the “primary skin irritation index” value came to 2.375 and the “skin irritation classification in this test system” value is recorded as “moderate irritant”. Also, the “eye irritation classification according to the reference” value in the data set with rabbit eyes is recorded as “non-irritating”. Also, the “irritation in rabbit eyes” value in the data set on rabbit eyes (with and without washout, observed seven days) is recorded as “no irritation”.
